Experimental data reported in BindingDB's records for patent US11279687 (Valo Health, 2022).

Target: Nicotinamide phosphoribosyltransferase (Homo sapiens, UniProt P43490)
Assay: Biochemical Inhibition Assay

Nicotinamide phosphoribosyltransferase, sequence (P43490 whole entry): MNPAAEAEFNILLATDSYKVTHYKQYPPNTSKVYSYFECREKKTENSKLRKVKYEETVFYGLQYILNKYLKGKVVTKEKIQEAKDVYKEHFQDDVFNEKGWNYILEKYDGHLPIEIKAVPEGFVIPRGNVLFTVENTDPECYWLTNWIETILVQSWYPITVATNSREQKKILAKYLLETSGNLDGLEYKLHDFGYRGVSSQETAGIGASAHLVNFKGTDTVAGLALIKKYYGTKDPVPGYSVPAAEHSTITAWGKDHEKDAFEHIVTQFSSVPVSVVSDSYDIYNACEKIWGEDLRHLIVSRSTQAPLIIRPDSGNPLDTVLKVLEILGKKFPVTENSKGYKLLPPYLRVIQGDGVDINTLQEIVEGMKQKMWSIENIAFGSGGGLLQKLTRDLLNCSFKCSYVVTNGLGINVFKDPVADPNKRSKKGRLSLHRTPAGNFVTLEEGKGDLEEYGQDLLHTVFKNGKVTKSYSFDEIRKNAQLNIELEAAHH

With C[C@H]1C2C[C@H](C[C@@H]1NS(=O)(=O)c1ccc(NC(=O)NCc3cccnc3)cc1)C2(C)C [US11279687, Compound 86] the IC50 was 12 nM.
